In US4499089A, “2-Alkylthio-1-aminoalkyl-2-pyrroline-3-carbonitriles, compositions and use” (Warner-Lambert Company, priority 1983, dated 1985):
Where a name gives a salt, the structure may show the parent alone. Read-outs that look alike come from different tables or passages of the source. Values belong to the compound of their own block, whether it stands above or below them.

Legend:
[1] = test system: thrombocyte aggregation (platelet-rich plasma); test: Collagen-induced thrombocyte aggregation in vitro (rats); assay type: cell-based, rat; details: for IC50: rat PRP, collagen-induced, 3 min incubation, end concentration lowering amplitude by 50%, read-out: C50-value (arith. M. + S.D.)
Experimental: Collagen-Induced Thrombocyte Aggregation In Vitro (Rats) Method: The test was carried out according to the method of BORN (Nature, 194, 927-929, 1962). As blood donors, there served male Sprague-Dawley SIV 50 rats with a body weight of 200 g. The blood sampling took place, under ether narcosis, from the retroorbital venous complex. Nine parts of blood were mixed with one part of 3.8% w/v tri-Na-citrate solution. After low speed centrifuging of the mixture at room temperature, the platelet-rich plasma (PRP, corresponding to erythrocyte-free supernatant) was removed and adjusted to a standard concentration of […]. As measurement instrument, there served an universal aggregometer (Braun, Melsungen), coupled with an Eppendorf photome[…] (Netheler and Hinz, Hamburg). In the investigation, 700 μl amounts of PRP were equilibrated in the aggregometer for five minutes at 37° C. and then mixed with 58 μl of the test substance solution or of a 0.9% NaCl solution (corresponding to the blank). After an incubation time of three minutes, the addition of 35 μl collagen suspension (collagen reagent HORM®, Hormon Chemie, Munchen) initiated the aggregation. A compensation recorder registered, in the following 15 minutes, the change of the transmission. The largest change of the transmission occurring in the period of time was called the amplitude (Amp) of the aggregation curve. Aggregation-inhibiting substances bring about a reduction of this amplitude; the inhibitory action (E) of a substance is calculated according to the following formula: E=[(Amp)blank -[…] ]×100(%) Dosage-action curves are produced on the basis of which their C50 values could be calculated. The C50 value gives the end concentration of a substance in the test system which leads to a lowering of the amplitude by 50%.

male mice (NMRI) = test: Acute toxicity in mice, seven day values; assay type: in vivo; details: intragastrally, 10080 min
Experimental: (§1) Investigation of the Acute Toxicity Method:
(§2) The determination of the acute toxicity was carried out on male mice (NMRI) with a body weight of 18 to 23 g. All experimental animals were fasted for 20 hours before commencement of the investigation. Water was available ad libitum. Four animals belonged to each dosage group. The dosage sequence was logarithmic. The test substances were administered either in the form of aqueous solutions or as suspensions in 0.8% Methocel. The administered volumes amounted, in the case of subcutaneous administration, to 10 ml/kg body weight, in the case of intragastral administration to 20 ml/kg body weight.

[2] = test system: carrageenin edema of the rat (paw edema); test: Antiphlogistic action on carrageenin edema of rats; assay type: in vivo; details: 3 h after carrageenin
Experimental: Investigation of the Antiphlogistic Action on Carrageenin Edema of Rats Method: Experimental animals were male rats (SIV 50), fasted for 20 hours, with a body weight of 110-160 g. Water was available ad libitum. After determination of the initial value of the paw volume of the right hind extremity, the test substances were administered intragastrally as suspension in 0.8% Methocel. Ten animals were used per dosage. The volume of administration amounted to 20 ml/kg body weight. The paw volume was measured plethysmometrically. Sixty minutes after intragastral administration of the test substances, 0.1 ml of a 1% carrageenin solution was injected subplanatary into the right hind paw. One and three hours after injection of the carrageenin, the paw volume of the oedematous paw was measured. The increase of the paw volume of the substance-treated animals after three hours was compared with that in the case of the control animals and the inhibition of the paw edema by the test substance was calculated as a percentage thereof.

yeast fever of the rat = test: Antipyretic action on yeast fever of the rat; assay type: in vivo; details: 12% yeast 20 ml/kg SC, rectal
Experimental: Investigation of the Antipyretic Action on Yeast Fever of the Rat Method: Experimental animals were male rats (SIV 50), fasted for 20 hours, with a body weight of 115-165 g. For the production of an elevated body temperature, the animals received, 18 hours before administration of the test substances, 20 ml/kg body of a 12% dry yeast suspension subcutaneously in two to three depots. A control group received the corresponding volume of physiological NaCl solution injected subcutaneously. Ten animals were used per dosage. After three preliminary measurementds of the body temperature on the experimental day in 30-minute intervals, the test substance was administered intragastrally to the animals treated with yeast. The volume of administration amounted to 20 ml/kg body weight. A second control group treated with yeast, as well as the control group treated the previous day with physiological NaCl solution, received the corresponding vehicle instead of test substance. The body temperature of the experimental animals was measured rectally by means of thermocouple sensor 30, 60 minutes and then, in each case, hourly up to a total of five hours after substance administration.

[3] = Acute toxicity in mice, seven day values; assay type: in vivo; details: mouse, in vivo, po, male NMRI mice, intragastrally
Experimental: as §1, §2

[4] = test system: stomach ulcer of the rat induced by indomethacin; test: Ulcer-protective action on stomach ulcer of the rat induced by indomethacin; assay type: in vivo; details: for Ulcer Inhibition in %: indomethacin 40 mg/kg
Experimental: Investigation of the Ulcer-Protective Action on Stomach Ulcer of the Rat Induced by Indomethacin. Method: Experimental animals were male rats (SIV 50), fasted for 20 hours, with a body weight of 150-200 g. Water was available ad libitum. 40 mg/kg indomethacin and the substance to be tested, as suspension in 0.8% Methocel, were simultaneously administered to the animals intragastrally. The control animals only received the corresponding dosage of indomethacin. Ten animals were used per experimental group. The administration volume amount to 10 ml/kg body weight. The animals were sacrificed five hours after administration. After removal of the stomachs and opening of the curvatura major, these were investigated with a stereo magnifying glass for the presence of ulcers. The assessment of the ulcers took place according to a point scheme proposed by M. Chaumontet et al. (Arzneim.-Forsch., 28, 2119, 1978). The ulcer index was calculated herefrom. The ulcer index of the animals treated with indomethacin and test substance was compared with that of the control animals only treated with indomethacin and the ulcer inhibition calculated therefrom in percent.

Compound: 1-(2-dimethylaminopropyl)-2-methylthio-5-oxo-4,4-diphenyl-2-pyrroline-3-carbonitrile [Compound 6]
IC50 [1]: 190 ± 40 µM
LD50 (male mice (NMRI)): 1200 mg/kg
Inhibition of Paw Edema in % ([2]; 125 mg/kg intragastrally): 36%
body temperature, 30 (yeast fever of the rat; 30 minutes after 250 mg/kg IG): 37 °C
body temperature, 60 (yeast fever of the rat; 60 minutes after 250 mg/kg IG): 36 °C
body temperature, 120 (yeast fever of the rat; 120 minutes after 250 mg/kg IG): 35.2 °C
body temperature, 180 (yeast fever of the rat; 180 minutes after 250 mg/kg IG): 34.7 °C
body temperature, 240 (yeast fever of the rat; 240 minutes after 250 mg/kg IG): 35.1 °C
body temperature, 300 (yeast fever of the rat; 300 minutes after 250 mg/kg IG): 35.6 °C

Compound: CCSC1=C(C#N)C(c2ccccc2)(c2ccccc2)C(=O)N1CCN1CCCCC1.Cl [Compound 1, 2-Ethylthio-5-oxo-4,4-diphenyl-1-(2-piperidinoethyl)-2-pyrroline-3-carbonitrile hydrochloride]
LD50 at 168 h [3]: 1600 mg/kg
Inhibition of Paw Edema in % ([2]; 125 mg/kg intragastrally): 36%

IC50 ([1]; 0.05 h): 150 ± 40 µM
Compound: CCSC1=C(C#N)C(c2ccccc2)(c2ccccc2)C(=O)N1CCCN(C)C [Compound 3, 2-ethylthio-1-(3-dimethylaminopropyl)-5-oxo-4,4-diphenyl-2-pyrroline-3-carbonitrile hydrochloride]

Compound: CCSC1=C(C#N)C(c2ccccc2)(c2ccccc2)C(=O)N1CCCN1CCOCC1 [Compound 5, 2-ethylthio-1-(3-morpholinopropyl)-5-oxo-4,4-diphenyl-2-pyrroline-3-carbonitrile]
LD50 at 168 h [3]: > 1600 mg/kg
Inhibition of Paw Edema in % ([2]; 37.5 mg/kg intragastrally): 22%
Inhibition of Paw Edema in % ([2]; 75 mg/kg intragastrally): 45%
Ulcer Inhibition in % ([4]; 100 mg/kg intragastrally): 52%
ulcer-protective action ([4]; in words): the most effective representative

Compound: CC(C)SC1=C(C#N)C(c2ccccc2)(c2ccccc2)C(=O)N1CCCN(C)C [Compound 8, 2-Isopropylthio-1-(3-dimethylaminopropyl)-5-oxo-4,4-diphenyl-2-pyrroline-3-carbonitrile]
IC50 ([1]; 0.05 h): 270 ± 50 µM
LD50 at 168 h [3]: 1400 mg/kg

Compound: CCCSC1=C(C#N)C(c2ccccc2)(c2ccccc2)C(=O)N1CCN(CC)CC [Compound 9, 1-(2-Diethylaminoethyl)-5-oxo-4,4-diphenyl-2-propylthio-2-pyrroline-3-carbonitrile]
Ulcer Inhibition in % ([4]; 250 mg/kg intragastrally): 29%

Compound: CSC1=C(C#N)C(c2ccccc2)(c2ccccc2)C(=O)N1CCCN1CCCCC1 [Compound 12, 2-methylthio-5-oxo-4,4-diphenyl-1-(3-piperidinopropyl)-2-pyrroline-3-carbonitrile]
IC50 ([1]; 0.05 h): 150 ± 20 µM
LD50 at 168 h [3]: > 1600 mg/kg

Compound: CCSC1=C(C#N)C(c2ccccc2)(c2ccccc2)C(=O)N1CCCN1CCCCC1.O=C(O)C(=O)O [Compound 15, 2-ethylthio-5-oxo-4,4-diphenyl-1-(3-piperidinopropyl)-2-pyrroline-3-carbonitrile oxalate]
LD50 at 168 h [3]: 700 mg/kg
Inhibition of Paw Edema in % ([2]; 150 mg/kg intragastrally): 39%
body temperature, 60 (yeast fever of the rat; 60 minutes after 150 mg/kg IG): 36.6 °C
body temperature, 120 (yeast fever of the rat; 120 minutes after 150 mg/kg IG): 35.8 °C
body temperature, 180 (yeast fever of the rat; 180 minutes after 150 mg/kg IG): 35.9 °C
body temperature, 240 (yeast fever of the rat; 240 minutes after 150 mg/kg IG): 36.4 °C
body temperature, 300 (yeast fever of the rat; 300 minutes after 150 mg/kg IG): 37 °C
Ulcer Inhibition in % ([4]; 150 mg/kg intragastrally): 29%

IC50 ([1]; 0.05 h): 140 ± 60 µM
Compound: CCSC1=C(C#N)C(c2ccccc2)(c2ccccc2)C(=O)N1CCCN(CC)CC [Compound 16, 1-(3-diethylaminopropyl)-2-ethylthio-5-oxo-4,4-diphenyl-2-pyrroline-3-carbonitrile hydrochloride]

IC50 ([1]; 0.05 h): 60 µM
Compound: CCSC1=C(C#N)C(c2ccccc2)(c2ccccc2)C(=O)N1CCCN [Compound 17a, 1-(3-Aminopropyl)-2-ethylthio-5-oxo-4,4-diphenyl-2-pyrroline-3-carbonitrilehydrochloride]
aggregation-inhibiting properties ([1]; in words): the most effective representative

Compound: CSC1=C(C#N)C(c2ccc(N(C)C)cc2)(c2cccnc2)C(=O)N1CCCN(C)C (centres unmarked) [Compound 21, 4-(4-Dimethylaminophenyl)-1-(3-dimethylaminopropyl)-2-methylthio-5-oxo-4-(3-pyridyl)-2-pyrroline-3-carbonitrile]
IC50 ([1]; 0.05 h): 160 ± 20 µM
LD50 at 168 h [3]: 1200 mg/kg
